# From ChEMBL document CHEMBL1932947, “Emodin inhibits migration and invasion of DLD-1 (PRL-3) cells via inhibition of PRL-3 phosphatase activity” (Bioorg Med Chem Lett, 2012)
# Active and inactive are the calls of the source. No cut-off for these calls is given here.
# Legend:
# [1] = target: T1, Protein tyrosine phosphatase type IVA 3 (Homo sapiens, UniProt O75365); assay: Inhibition of PRL-3-mediated cell migration in human DLD1 cells at 40 uM after 15 hrs by crystal violet staining based microscopic assay; details: DLD-1
# [2] = target: T1, Protein tyrosine phosphatase type IVA 3; assay: Inhibition of PRL-3-mediated cell migration in human DLD1 cells after 15 hrs by crystal violet staining based microscopic assay; details: DLD-1
# [3] = target: T1, Protein tyrosine phosphatase type IVA 3; assay: Inhibition of PRL3-mediated ezrin phosphorylation in human DLD1 cells assessed as increase in alpha-ERM-Thr567 phosphorylation at 10 to 40 uM after 15 hrs by chemiluminescence method relative to control; assay type: cell-based; details: DLD-1
# DLD-1 = assay: Cytotoxicity against human DLD1 cells expressing PRL-3 assessed as inhibition of cell proliferation up to 50 uM after 24 hrs by WST-1 assay; assay type: cell-based; details: dld-1, 24 h
# Ezrin (Homo sapiens) = Ezrin (Homo sapiens) (UniProt P15311); assay: Inhibition of ezrin phosphorylation in human DLD1 cells assessed as increase in alpha-ERM-Thr567 phosphorylation at 10 to 40 uM after 15 hrs by chemiluminescence method; assay type: cell-based; details: DLD-1
# [4] = target: T1, Protein tyrosine phosphatase type IVA 3; assay: Inhibition of PRL3 after 1 hr by DiFMUP assay
# [5] = target: T1, Protein tyrosine phosphatase type IVA 3; assay: Inhibition of PRL-3-mediated cell invasion in human DLD1 cells after 20 hrs using crystal violet staining by Matrigel invasion assay; assay type: cell-based; details: DLD-1
# [6] = target: T1, Protein tyrosine phosphatase type IVA 3; assay: Inhibition of PRL-3-mediated cell invasion in human DLD1 cells at 40 uM after 20 hrs using crystal violet staining by Matrigel invasion assay; assay type: cell-based; details: DLD-1
# T1 sequence (O75365 whole entry): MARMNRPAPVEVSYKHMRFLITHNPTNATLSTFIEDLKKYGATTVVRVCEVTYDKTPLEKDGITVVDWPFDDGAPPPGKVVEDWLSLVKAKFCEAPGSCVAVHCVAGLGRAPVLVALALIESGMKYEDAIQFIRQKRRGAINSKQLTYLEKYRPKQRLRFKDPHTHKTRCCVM
# Chain of Ezrin (Homo sapiens) (P15311 whole entry): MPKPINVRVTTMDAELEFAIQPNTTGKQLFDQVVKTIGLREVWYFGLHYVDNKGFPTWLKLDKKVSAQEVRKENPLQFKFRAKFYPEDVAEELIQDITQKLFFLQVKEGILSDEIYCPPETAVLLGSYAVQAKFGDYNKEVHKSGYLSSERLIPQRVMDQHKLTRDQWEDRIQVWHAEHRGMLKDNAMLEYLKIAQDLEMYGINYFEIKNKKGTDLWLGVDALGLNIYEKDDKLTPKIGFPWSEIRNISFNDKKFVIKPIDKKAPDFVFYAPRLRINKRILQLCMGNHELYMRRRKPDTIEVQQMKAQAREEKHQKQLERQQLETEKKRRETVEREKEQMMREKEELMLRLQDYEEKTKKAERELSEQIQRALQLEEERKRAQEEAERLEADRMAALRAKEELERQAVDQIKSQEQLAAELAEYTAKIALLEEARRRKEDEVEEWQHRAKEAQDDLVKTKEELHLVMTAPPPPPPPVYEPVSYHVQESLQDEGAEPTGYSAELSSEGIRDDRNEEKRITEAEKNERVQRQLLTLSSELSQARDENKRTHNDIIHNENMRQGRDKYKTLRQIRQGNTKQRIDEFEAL
smiles,measurement,setting,value
Cc1cc(O)c2c(c1)C(=O)c1cc(O)cc(O)c1C2=O [EMODIN],inhibition,[1],> 80%
same,inhibition,[2],Dose-dependent effect
same,inhibition,[3],Active
same,Activity,DLD-1,Non-toxic
same,inhibition,Ezrin (Homo sapiens),inactive
same,IC50,[4],3.5 µM
same,inhibition,[4],Dose-dependent effect
same,inhibition,[5],Dose-dependent effect
same,inhibition,[6],70%
